# Measured values reported in patent US20140193510A1, “Polymer-Agent Conjugates, Particles, Compositions, and Related Methods of Use” (CERULEAN PHARMA INC., priority 2009, published 2014).
# Several values for one entry are separate records, joined by “and”; a condition that tells them apart may be missing. Equal entries are not always repeated. Entries after “also recorded” stand apart in the source; their conditions may differ. Where two headings read alike, the source gives them in different places.
# Assays:
# [1] = tested on: B16.F10 cells; assay: CellTiter-Glo Luminescent Cell Viability Assay (cytotoxicity of nanoparticles); assay type: cell-based; conditions: 24, 48 and 72 hours of incubation
# Protocol: B16.F10 cells, grown to 85-90% confluency in 150 cm^2 flasks (passage <30), were resuspended in media (MEM-alpha, 10% HI-FBS, 1× antibiotic-antimycotic) and added to 96-well opaque-clear bottom plates at a concentration of 1500 cells/well in 200 μL/well. The cells were incubated at 37° C. with 5% CO2 for 24 hours. The following day, serial dilutions of 2× concentrated particles and 2× concentrated free drug were made in 12-well reservoirs with media to specified concentrations. The media in the plates was replaced with 100 μL of fresh media and 100 μL of the corresponding serially diluted drug. Three sets of plates were prepared with duplicate treatments. Following 24, 48 and 72 hours of incubation at 37° C. with 5% CO2, the media in the plates was replaced with 100 μL of fresh media and 100 μL of CTG solution, and then incubated for 5 minutes on a plate shaker at room temperature set to 450 rpm and allowed to rest for 15 minutes. Viable cells were measured by luminescence using a microtiter plate reader. The data was plotted as viability vs. concentration and standardized to untreated cells.
# [2] = Tolerability (body weight) in B16.F10 murine melanoma model (Example 43); assay type: in vivo, C57BL/6 mice
# [3] = tested on: B16.F10 cells; assay: Efficacy in B16.F10 murine melanoma model (Example 43); assay type: in vivo, C57BL/6 mice; conditions: q4dq3dx3 (three injections over 2 weeks), 15 mg/kg IV
# Protocol: Refer to table for detailed description of formulations.
# Tumor volume was calculated with the following equation: (width×width×length)/2 mm^3.
# [4] = Body weight changes in A2780 tumor-bearing mice (Example 42); assay type: in vivo, CD-1 nude mice; conditions: for % of initial body weight: Day 36
# Protocol: This formulation was made within 30 minutes of administration to mice.
# The treatments were administered 2 times, on Day 8 and Day 15 (weekly×2 injections) for n=8 mice per group. […] On Day 50, the study was ended for all remaining mice. When removed from the study, mice were euthanized by CO2 inhalation.
# [5] = Body weight in HCT-116 tumor bearing mice (Example 44); assay type: in vivo, CD-1 nude mice; conditions: 30 mg/kg IV
# Protocol: The treatments were administered IV into the tail vein at the respective dose volumes (refer to previous paragraph), beginning on post-implantation Day 13, when the mean tumor volume was 131 mm^3.
# [6] = Tolerability in normal non-tumor-bearing mice (body weight, CBC, serum chemistry, ataxia, sciatic nerve; Example 47); assay type: in vivo, C57BL/6 mice; conditions: for ataxia: n=5
# Protocol: Treatments were administered intravenously on a q7dx2 schedule, i.e., two treatments seven days apart (the first treatment was on Day one). The study ended on Day 14, six days after the 2nd treatment. Blood was collected for complete blood count (CBC) and serum chemistry. Leg muscles were collected so that nerve degeneration could be assessed from the sciatic nerve.
# [7] = Body weight and ataxia in MDA-MB-435 tumor-bearing mice (Example 46); conditions: for ataxia: weekly x two injections
# Protocol: The treatments were administered IV into the tail vein at the dose volumes stated above, beginning on post-implantation Day 21, when the mean tumor volume was 150 mm^3 or, for one group, on Day 37, when the mean tumor volume for that group was 433 mm^3.
# [8] = tested on: MDA-MB-435 cells; assay: In vivo efficacy, MDA-MB-435 melanoma human xenograft model (Example 46); set-up: species or system CD-1 nude mice; conditions: as of Day 76, weekly x two injections
# Protocol: MDA-MB-435 cells were grown in culture to confluency in RPMI medium containing 10% FBS and 1% penicillin/streptomycin and then resuspended in RPMI (passage 4) for implantation into mice. A volume of 0.1 mL containing 4.0×10^6 cells MDA-MB-435 cells were implanted into the mammary gland of female CD-1 nude mice on Day 1.
# [9] = Body weight and ataxia in SK-OV-3 tumor-bearing mice (Example 45); assay type: in vivo, CD-1 nude mice; conditions: weekly x two injections
# [10] = mouse, in vivo
# Protocol: The stock solution was diluted further with PBS to 0.6, 1.5, 3, 4.5 and 6 mg/mL (for a corresponding dose of 6, 15, 30, 45 and 60 mg/kg) so that all the groups received the same amount of ethanol, polysorbate 80, water and PBS. […] 5) PEGylated O-acetyl-5050-PLGA nanoparticle vehicle at the highest concentration of 6 mg/mL.
# The treatments were administered IV into the tail vein at a dose volume of 10 mL/kg, beginning on post-implantation Day 5, when the mean tumor volume was 55 mm^3. The treatments were administered 4 times, on Days 5, 8, 12 and 15 (biweekly×4 injections). On Day 17 post-tumor implantation, mice were euthanized by CO2 inhalation according to the procedure guideline. Blood was collected by cardiac puncture and put into ethylenediaminetetraacetic acid (EDTA) or serum separation blood collection tubes. Whole blood was analyzed on the day of collection for CBC analyses. After the blood clotted and was centrifuged, serum was frozen immediately on dry ice for serum chemistry analyses.
# Tolerability was determined by changes in body weight, expressed as a percent of the initial body weight on post-implantation Day 5. […] Other indices of toxicity, complete blood count (CBC) and serum chemistry were determined from blood collected from animals that were euthanized on Day 17 by CO2 inhalation, according to the procedure guideline.
molecule,measurement,setting,value
doxorubicin 5050 PLGA amide,growth of B16.F10 cells (viability),[1],inhibited the growth of B16.F10 cells in a dose and time dependent manner
"CC(=O)O[C@@]12CO[C@@H]1C[C@H](O)[C@@]1(C)C(=O)[C@H](O)C3=C(C)[C@@H](OC(=O)[C@H](O)[C@@H](NC(=O)OC(C)(C)C)c4ccccc4)C[C@@](O)([C@@H](OC(=O)c4ccccc4)[C@H]21)C3(C)C [Free docetaxel, docetaxel]",Maximum body weight loss,"[2]; q3dq4dx3, 15 mg/kg IV, listed as Docetaxel",11% and 12%
same,Maximum body weight loss,"[2]; q4dq3dx3, 15 mg/kg IV",11%
same,Maximum body weight loss,"[2]; q7dx3, 30 mg/kg IV",11%
same,Maximum body weight loss,"[2]; q14dx2, 60 mg/kg IV, listed as Docetaxel",0%
same,Maximum body weight loss,"[2]; q14dx2, 60 mg/kg IV, listed as docetaxel",did not show any body weight loss
same,Maximum body weight loss,"[2]; three times, once every week, 15 mg/kg (as worded)",11%
same,Tumor growth inhibition (TGI),[3],90%
same,Maximum body weight loss,[4]; 15 mg/kg IV weekly x 2,7%
same,% of initial body weight,[4]; 15 mg/kg,113±11%
same,Maximum body weight loss,[4]; 30 mg/kg IV weekly x 2,10%
same,% of initial body weight,[4]; 30 mg/kg,105±9%
same,Maximum body weight loss,[5],14%
same,body weight more than the initial on Day 14,[6]; 30 mg/kg IV q7dx2,3%
same,ataxia,[6]; 30 mg/kg IV q7dx2,0%
same,body weight more than the initial on Day 14,[6]; 45 mg/kg IV q7dx2,2%
same,ataxia,[6]; 45 mg/kg IV q7dx2,20%
same,Neutrophil mean,"[6]; 60 mg/kg IV q7dx2, Day 14",470 cells/μL
same,"weight lost after the second treatment, by the end of the study","[6]; 60 mg/kg IV q7dx2, Day 14",19%
same,ataxia,[6]; 60 mg/kg IV q7dx2,100%
same,effect on serum chemistry parameters,"[6]; q7dx2, Day 14",did not affect any serum chemistry parameter at doses up to 60 mg/kg
same,mice observed to develop ataxia,"[6]; q7dx2, n=5/group, dose in the value",no mice in the 30 mg/kg group were seen to develop ataxia or any overt signs of nerve damage; also recorded: One mouse in the 45 mg/kg group was observed to develop ataxia on Day 14; also recorded: Five out of five mice in the 60 mg/kg group was observed to develop ataxia
same,ataxia,[7]; 30 mg/kg IV,did not cause ataxia
same,body weight loss,"[7]; 60 mg/kg IV, Days 21 and 28 (mean tumor size 150 mm^3 at start)",greater than 20%
same,ataxia,"[7]; 60 mg/kg IV, listed as docetaxel",developed ataxia
same,ataxia,"[7]; 60 mg/kg IV, listed as free docetaxel",Ataxia was observed four days after the second treatment
same,TGI compared with PEGylated nanoparticles,[8]; listed as docetaxel,docetaxel at a dose of 30 mg/kg is equivalent to PEGylated nanoparticles at a dose of 60 mg/kg
same,TGI compared with PEGylated nanoparticles,[8]; listed as free docetaxel,"the treatment at a dose of 15 mg/kg resulted in the same TGI for free docetaxel and PEGylated nanoparticles; also recorded: At a dose of 30 mg/kg, the TGI for free docetaxel was greater than that for PEGylated nanoparticles; also recorded: At a dose of 60 mg/kg, free docetaxel was equivalent to PEGylated nanoparticles until the free drug group was removed from the study"
same,Maximum body weight loss,[9]; 30 mg/kg IV,13%
same,ataxia,[9]; 30 mg/kg IV,did not cause ataxia
same,body weight loss,[9]; 60 mg/kg IV,greater than 20%
same,effect on serum chemistry parameters,[10],did not affect any serum chemistry parameter at doses up to 30 mg/kg
docetaxel-5050 PLGA-O-acetyl,growth of B16.F10 cells (viability),[1],inhibited the growth of B16.F10 cells in a dose and time dependent manner
paclitaxel-5050 PLGA-O-acetyl,growth of B16.F10 cells (viability),[1],inhibited the growth of B16.F10 cells in a dose and time dependent manner
